Source: patent publication US20070270400A1, “New compounds 303” (priority 2006, published 2007)

Tests used:
human NK1 receptor = target: T1, human NK1 receptor (Homo sapiens, UniProt P25103); assay: FLIPR assay, inhibition of human NK1 receptor activation (intracellular Ca2+); format: cell-based; details: CHO cells with human NK1 receptor, agonist Substance P; pKB converted from IC50
T1 construct: expressed in transfected cells; AstraZeneca R&D Wilmington), pRcCMV vector
Experimental: (§1) Chinese Hamster Ovary (CHO) K1 cells (obtained from ATCC) were stably transfected with the human NK2 receptor (hNK2R cDNA in pRc/CMV, Invitrogen) or the human NK3 receptor (hNK3R in pcDNA 3.1/Hygro (+)/IRES/CD8, Invitrogen vector modified at AstraZeneca EST-Bio UK, Alderley Park). The cells were transfected with the cationic lipid reagent LIPOFECTAMINE™ (Invitrogen) and selection was performed with Geneticin (G418, Invitrogen) at 1 mg/ml for the hNK2R transfected cells and with Hygromycin (Invitrogen) at 500 μg/ml for the hNK3R transfected cells. Single cell clones were collected by aid of Fluorescence Activated Cell Sorter (FACS), tested for functionality in a FLIPR assay (see below), expanded in culture and cryopreserved for future use. […]
(§2) The activity of a compound of the invention to inhibit NK1/NK2/NK3 receptor activation measured as NK1/NK2/NK3 receptor mediated increase in intracellular Ca^2+ was assessed by the following procedure:
(§3) CHO cells stably transfected with human NK1, NK2 or NK3 receptors were plated in black walled/clear bottomed 96-well plates (Costar 3904) at 3.5×10^4 cells per well and grown for approximately 24 h in normal growth media in a 37° C. […] The response was measured as the peak relative fluorescence after agonist addition and IC50s were calculated from ten-point concentration-response curves for each compound. […]

human NK2 receptor = target: T2, human NK2 receptor (Homo sapiens, UniProt P21452); assay: FLIPR assay, inhibition of human NK2 receptor activation (intracellular Ca2+); format: cell-based; details: CHO cells with human NK2 receptor, agonist NKA; pKB converted from IC50
T2 construct: expressed in transfected cells
T2 sequence (P21452 1-398): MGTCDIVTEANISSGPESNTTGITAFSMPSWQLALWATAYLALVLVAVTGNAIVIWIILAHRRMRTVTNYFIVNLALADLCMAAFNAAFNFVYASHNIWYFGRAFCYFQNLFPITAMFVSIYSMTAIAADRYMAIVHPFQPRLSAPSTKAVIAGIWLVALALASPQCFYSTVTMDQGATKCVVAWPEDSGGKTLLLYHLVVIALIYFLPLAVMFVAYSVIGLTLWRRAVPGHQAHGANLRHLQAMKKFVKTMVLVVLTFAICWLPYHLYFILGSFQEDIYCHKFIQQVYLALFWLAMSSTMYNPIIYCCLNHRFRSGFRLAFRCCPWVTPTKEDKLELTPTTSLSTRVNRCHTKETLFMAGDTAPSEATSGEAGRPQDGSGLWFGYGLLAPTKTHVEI
Experimental: as §1, §2, §3

human NK3 receptor = target: T3, human NK3 receptor (Homo sapiens, UniProt P29371); assay: FLIPR assay, inhibition of human NK3 receptor activation (intracellular Ca2+); format: cell-based; details: CHO cells with human NK3 receptor, agonist Pro-7-NKB; pKB converted from IC50
T3 construct: expressed in transfected cells
T3 sequence (P29371 1-465): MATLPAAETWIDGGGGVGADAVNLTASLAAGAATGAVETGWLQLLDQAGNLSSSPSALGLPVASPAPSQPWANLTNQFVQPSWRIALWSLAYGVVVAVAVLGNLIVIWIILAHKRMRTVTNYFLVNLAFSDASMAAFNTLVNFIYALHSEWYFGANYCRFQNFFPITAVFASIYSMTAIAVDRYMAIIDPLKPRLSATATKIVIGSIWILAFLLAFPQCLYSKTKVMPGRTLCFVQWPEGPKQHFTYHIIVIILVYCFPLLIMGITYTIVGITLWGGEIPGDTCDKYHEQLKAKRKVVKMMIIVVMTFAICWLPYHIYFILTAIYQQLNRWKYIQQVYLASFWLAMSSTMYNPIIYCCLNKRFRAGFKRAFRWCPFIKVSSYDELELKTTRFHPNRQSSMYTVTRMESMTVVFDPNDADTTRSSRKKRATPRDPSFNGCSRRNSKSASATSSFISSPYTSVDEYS
Experimental: as §1, §2, §3

[1] = target: hERG-encoded potassium channel (Homo sapiens, UniProt Q12809); assay: Activity against hERG, planar-array-based voltage clamp; format: cell-based
Chain of hERG-encoded potassium channel (Q12809 whole entry): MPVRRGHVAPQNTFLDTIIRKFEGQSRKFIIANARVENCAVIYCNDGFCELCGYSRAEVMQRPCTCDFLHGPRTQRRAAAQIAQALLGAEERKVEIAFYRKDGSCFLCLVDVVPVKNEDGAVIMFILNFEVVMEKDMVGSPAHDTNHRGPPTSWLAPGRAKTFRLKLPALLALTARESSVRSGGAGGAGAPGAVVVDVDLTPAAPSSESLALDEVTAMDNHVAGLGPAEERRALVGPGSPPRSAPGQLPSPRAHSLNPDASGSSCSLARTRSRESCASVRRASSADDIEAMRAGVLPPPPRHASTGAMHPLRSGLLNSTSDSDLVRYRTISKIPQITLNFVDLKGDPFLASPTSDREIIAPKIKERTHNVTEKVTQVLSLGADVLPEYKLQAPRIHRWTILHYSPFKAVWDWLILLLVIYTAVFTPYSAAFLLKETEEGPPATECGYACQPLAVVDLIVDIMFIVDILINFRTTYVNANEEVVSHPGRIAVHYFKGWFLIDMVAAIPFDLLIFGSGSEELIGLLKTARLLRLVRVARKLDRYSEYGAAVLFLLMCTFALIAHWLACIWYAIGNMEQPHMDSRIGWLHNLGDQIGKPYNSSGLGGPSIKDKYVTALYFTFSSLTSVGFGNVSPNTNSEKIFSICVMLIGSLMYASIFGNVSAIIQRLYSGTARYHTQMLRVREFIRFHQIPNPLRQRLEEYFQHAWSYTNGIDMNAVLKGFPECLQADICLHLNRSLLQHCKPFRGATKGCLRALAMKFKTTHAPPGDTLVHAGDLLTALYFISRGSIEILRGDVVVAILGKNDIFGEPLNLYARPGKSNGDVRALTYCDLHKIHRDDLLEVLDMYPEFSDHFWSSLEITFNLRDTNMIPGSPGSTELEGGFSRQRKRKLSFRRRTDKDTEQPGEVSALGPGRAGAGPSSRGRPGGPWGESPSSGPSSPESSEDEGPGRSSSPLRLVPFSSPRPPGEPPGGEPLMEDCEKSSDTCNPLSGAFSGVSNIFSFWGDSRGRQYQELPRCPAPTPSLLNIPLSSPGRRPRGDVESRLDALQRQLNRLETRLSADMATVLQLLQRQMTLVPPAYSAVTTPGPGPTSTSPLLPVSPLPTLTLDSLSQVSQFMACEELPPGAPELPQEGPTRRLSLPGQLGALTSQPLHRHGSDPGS
Source text: The activity of compounds according to formula I against the hERG-encoded potassium channel can be determined according to Kiss L, et al. Assay Drug Dev Technol. 1 (2003), 127-35: “High throughput ion-channel pharmacology: planar-array-based voltage clamp”.

CYP3A4 = CYP3A4 (Homo sapiens, UniProt P08684); assay: CYP3A4 inhibition according to Bapiro et al; format: in vitro ADME
Chain of CYP3A4 (P08684 whole entry): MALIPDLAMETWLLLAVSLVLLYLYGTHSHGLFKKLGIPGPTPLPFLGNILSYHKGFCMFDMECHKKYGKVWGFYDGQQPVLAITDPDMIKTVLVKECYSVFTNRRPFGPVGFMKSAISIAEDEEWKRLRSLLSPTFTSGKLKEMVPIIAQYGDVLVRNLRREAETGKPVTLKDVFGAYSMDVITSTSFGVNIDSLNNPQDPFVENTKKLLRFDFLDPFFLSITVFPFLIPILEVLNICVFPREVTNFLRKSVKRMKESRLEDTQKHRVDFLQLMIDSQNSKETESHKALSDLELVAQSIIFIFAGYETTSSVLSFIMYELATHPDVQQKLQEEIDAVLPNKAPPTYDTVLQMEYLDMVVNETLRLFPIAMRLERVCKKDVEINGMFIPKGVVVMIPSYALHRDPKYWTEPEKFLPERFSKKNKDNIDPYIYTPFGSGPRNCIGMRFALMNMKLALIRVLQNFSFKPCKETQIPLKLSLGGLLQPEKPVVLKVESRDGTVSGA
Experimental: The IC50 values tested according to Bapiro et al; Drug Metab. Dispos. 29, 30-35 (2001) were generally greater than 15 μM.

[2] = Metabolic stability in liver microsomes (intrinsic clearance); format: in vitro ADME; details: human, pH 7.4, HLM
Experimental: The rate of biotransformation can be measured as either metabolite(s) formation or the rate of disappearance of the parent compound. The experimental design involves incubation of low concentrations of substrate (usually 1.0 μM) with liver microsomes (usually 0.5 mg/ml) and taking out aliquotes at varying time points (usually 0, 5, 10, 15, 20, 30, 40 min.). The test compound is usually dissolved in DMSO. The DMSO concentration in the incubation mixture is usually 0.1% or less since more solvent can drastically reduce the activities of some CYP450s. Incubations are done in 100 mM potassium phosphate buffer, pH 7.4 and at 37° C. Acetonitrile or methanol is used to stop the reaction. The parent compound is analysed by HPLC-MS. From the calculated half-life, t1/2, the intrinsic clearance, Clint, is estimated by taking microsomal protein concentration and liver weight into account.

T1 sequence (P25103 whole entry): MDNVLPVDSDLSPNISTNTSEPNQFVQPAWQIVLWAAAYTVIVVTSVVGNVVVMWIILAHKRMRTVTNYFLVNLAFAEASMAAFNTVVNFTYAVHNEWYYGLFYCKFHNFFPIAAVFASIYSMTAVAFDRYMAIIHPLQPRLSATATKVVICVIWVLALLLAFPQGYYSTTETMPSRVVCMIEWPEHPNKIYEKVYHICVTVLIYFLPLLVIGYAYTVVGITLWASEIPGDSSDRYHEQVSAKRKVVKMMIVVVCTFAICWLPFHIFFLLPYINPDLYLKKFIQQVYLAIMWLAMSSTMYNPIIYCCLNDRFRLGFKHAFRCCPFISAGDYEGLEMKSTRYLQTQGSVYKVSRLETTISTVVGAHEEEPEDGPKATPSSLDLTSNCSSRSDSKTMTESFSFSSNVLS

Question: For `CC(C)C(=O)N1CCN(C2CN(CC[C@H](CN(C)C(=O)c3cc(Cl)cc(C(F)(F)F)c3)c3ccc(F)cc3)C2)CC1` [Ex 2, 3-Chloro-N-{(2S)-2-(4-fluorophenyl)-4-[3-(4-isobutyrylpiperazin-1-yl)azetidin-1-yl]butyl}-N-methyl-5-(trifluoromethyl)benzamide], which Kb (human NK1 receptor) is on record?
Answer: Its Kb is 10 nM.

Question: And the Kb (human NK2 receptor)?
Answer: Its Kb is 31.6 nM.

Question: What about the Kb (human NK3 receptor) of the same molecule?
Answer: The Kb was 63.1 nM.

Question: What about the IC50 [1] of the same molecule?
Answer: Its IC50 is 6600 nM.

Question: And the IC50 (CYP3A4)?
Answer: The IC50 was 18300 nM.

Question: And the microsomal CLint at 1 μM [2]?
Answer: The microsomal CLint at 1 μM was 36 µL/min/mg.
